From the supplement of paper PMC10307832

Legend:
Test in all cases: relative viability (nuclei count vs DMSO), 5 days (fraction); higher = more cells survive
201T = system: 201T
In short: (§1)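 Dosing by pin tool came one day after lung cancer cell lines were seeded in 1536-well plates, using either one drug or a fixed anchor-drug dose plus five library-drug doses (not always all listed) in √10 steps. After 5 days, nuclei were counted on 4× images. Relative viability is treated-well nuclei count divided by vehicle-well nuclei count, and values are medians of duplicate plates.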

COR-L23 = system: COR-L23
In short: as §1

EKVX = system: EKVX
In short: as §1

EPLC-272H = system: EPLC-272H
In short: as §1

HCC-44 = system: HCC-44
In short: as §1

LOU-NH91 = system: LOU-NH91
In short: as §1

NCI-H1650 = system: NCI-H1650
In short: as §1

NCI-H1734 = system: NCI-H1734
In short: as §1

NCI-H1793 = system: NCI-H1793
In short: as §1

NCI-H1993 = system: NCI-H1993
In short: as §1

NCI-H2023 = system: NCI-H2023
In short: as §1

NCI-H2085 = system: NCI-H2085
In short: as §1

NCI-H2170 = system: NCI-H2170
In short: as §1

NCI-H2347 = system: NCI-H2347
In short: as §1

NCI-H2405 = system: NCI-H2405
In short: as §1

NCI-H3122 = system: NCI-H3122
In short: as §1

NCI-H441 = system: NCI-H441
In short: as §1

NCI-H520 = system: NCI-H520
In short: as §1

NCI-H647 = system: NCI-H647
In short: as §1

PC-14 = system: PC-14
In short: as §1

RERF-LC-KJ = system: RERF-LC-KJ
In short: as §1

## C[C@@H]1CN(CC(=O)Nc2ccc3c(c2)Cc2cccc(-c4cc(=O)cc(N5CCOCC5)o4)c2S3)C[C@H](C)O1 + CC1(C)CCC(c2ccc(Cl)cc2)=C(CN2CCN(c3ccc(C(=O)NS(=O)(=O)c4ccc(N[C@H](CCN5CCOCC5)CSc5ccccc5)c(S(=O)(=O)C(F)(F)F)c4)cc3)CC2)C1 [Navitoclax] (partner 0.5 µM)
201T; first compound 0.04 µM
  relative viability: 1.21
201T; first compound 0.1265 µM
  relative viability: 1.2
201T; first compound 0.4 µM
  relative viability: 1.19
201T; first compound 4 µM
  relative viability: 1.14
COR-L23; first compound 0.04 µM
  relative viability: 1.25
COR-L23; first compound 0.1265 µM
  relative viability: 0.985
COR-L23; first compound 0.4 µM
  relative viability: 1.17
COR-L23; first compound 4 µM
  relative viability: 0.962
EKVX; first compound 0.04 µM
  relative viability: 0.899
EKVX; first compound 0.1265 µM
  relative viability: 0.894
EKVX; first compound 0.4 µM
  relative viability: 0.862
EKVX; first compound 4 µM
  relative viability: 0.812
EPLC-272H; first compound 0.04 µM
  relative viability: 1.09
EPLC-272H; first compound 0.1265 µM
  relative viability: 0.935
EPLC-272H; first compound 0.4 µM
  relative viability: 1.11
EPLC-272H; first compound 4 µM
  relative viability: 0.911
HCC-44; first compound 0.04 µM
  relative viability: 0.987
HCC-44; first compound 0.1265 µM
  relative viability: 0.894
HCC-44; first compound 0.4 µM
  relative viability: 0.835
HCC-44; first compound 4 µM
  relative viability: 0.943
LOU-NH91; first compound 0.04 µM
  relative viability: 0.701
LOU-NH91; first compound 0.1265 µM
  relative viability: 0.617
LOU-NH91; first compound 0.4 µM
  relative viability: 0.702
LOU-NH91; first compound 4 µM
  relative viability: 0.66
NCI-H1650; first compound 0.04 µM
  relative viability: 1.25
NCI-H1650; first compound 0.1265 µM
  relative viability: 1.09
NCI-H1650; first compound 0.4 µM
  relative viability: 1.38
NCI-H1650; first compound 4 µM
  relative viability: 0.969
NCI-H1734; first compound 0.04 µM
  relative viability: 0.783
NCI-H1734; first compound 0.1265 µM
  relative viability: 0.886
NCI-H1734; first compound 0.4 µM
  relative viability: 0.808
NCI-H1734; first compound 4 µM
  relative viability: 0.923
NCI-H1793; first compound 0.04 µM
  relative viability: 0.495
NCI-H1793; first compound 0.1265 µM
  relative viability: 0.341
NCI-H1793; first compound 0.4 µM
  relative viability: 0.322
NCI-H1793; first compound 4 µM
  relative viability: 0.377
NCI-H1993; first compound 0.04 µM
  relative viability: 0.933
NCI-H1993; first compound 0.1265 µM
  relative viability: 0.868
NCI-H1993; first compound 0.4 µM
  relative viability: 0.644
NCI-H1993; first compound 4 µM
  relative viability: 0.865
NCI-H2023; first compound 0.04 µM
  relative viability: 0.993
NCI-H2023; first compound 0.1265 µM
  relative viability: 0.921
NCI-H2023; first compound 0.4 µM
  relative viability: 0.923
NCI-H2023; first compound 4 µM
  relative viability: 0.796
NCI-H2085; first compound 0.04 µM
  relative viability: 1.23
NCI-H2085; first compound 0.1265 µM
  relative viability: 1.18
NCI-H2085; first compound 0.4 µM
  relative viability: 1.02
NCI-H2085; first compound 4 µM
  relative viability: 0.827
NCI-H2170; first compound 0.1265 µM
  relative viability: 0.617
NCI-H2170; first compound 0.4 µM
  relative viability: 0.471
NCI-H2170; first compound 4 µM
  relative viability: 0.475
NCI-H2347; first compound 0.04 µM
  relative viability: 0.768
NCI-H2347; first compound 0.1265 µM
  relative viability: 0.81
NCI-H2347; first compound 0.4 µM
  relative viability: 0.769
NCI-H2347; first compound 4 µM
  relative viability: 0.672
NCI-H2405; first compound 0.04 µM
  relative viability: 1.02
NCI-H2405; first compound 0.1265 µM
  relative viability: 1.1
NCI-H2405; first compound 0.4 µM
  relative viability: 0.866
NCI-H2405; first compound 4 µM
  relative viability: 0.872
NCI-H3122; first compound 0.04 µM
  relative viability: 1.05
NCI-H3122; first compound 0.1265 µM
  relative viability: 1.03
NCI-H3122; first compound 0.4 µM
  relative viability: 0.965
NCI-H3122; first compound 4 µM
  relative viability: 0.95
NCI-H441; first compound 0.04 µM
  relative viability: 0.427
NCI-H441; first compound 0.4 µM
  relative viability: 0.576
NCI-H441; first compound 4 µM
  relative viability: 0.318
NCI-H520; first compound 0.04 µM
  relative viability: 1.2
NCI-H520; first compound 0.1265 µM
  relative viability: 1.03
NCI-H520; first compound 0.4 µM
  relative viability: 0.888
NCI-H520; first compound 4 µM
  relative viability: 1.08
NCI-H647; first compound 0.04 µM
  relative viability: 0.989
NCI-H647; first compound 0.1265 µM
  relative viability: 1.09
NCI-H647; first compound 0.4 µM
  relative viability: 1.09
NCI-H647; first compound 4 µM
  relative viability: 0.591
PC-14; first compound 0.04 µM
  relative viability: 1.04
PC-14; first compound 0.1265 µM
  relative viability: 0.987
PC-14; first compound 0.4 µM
  relative viability: 1.01
PC-14; first compound 4 µM
  relative viability: 0.797
RERF-LC-KJ; first compound 0.04 µM
  relative viability: 0.736
RERF-LC-KJ; first compound 0.1265 µM
  relative viability: 1.12
RERF-LC-KJ; first compound 0.4 µM
  relative viability: 1.16
RERF-LC-KJ; first compound 4 µM
  relative viability: 0.713
